{"source": "patent US5700640A", "about": "“Inducers of gamma globin gene expression and screening assays therefor” (priority 1994, dated 1997)", "key": {"[1]": {"test_system": "GATA-1 mRNA", "assay": "GATA-1 mRNA level (Northern) with BA and/or cycloheximide in gamma3'PE cells", "type": "cell-based, human", "procedure": "(§1) To determine if BA exerts its inductive effects by acting directly on pre-existing proteins in the cells, the effect of the protein synthesis inhibitor cycloheximide (CHX) on BA-induced expression of RNA was analyzed. In these experiments, gamma3'PE cells were incubated with 150 μg/ml CHX for 2 hr prior to addition of BA (5 mM). Control cells were incubated with either CHX or BA alone or were mock incubated. Cells were harvested 5 hr later for preparation of total RNA. RNA samples were electrophoresed, transferred to nitrocellulose and hybridized to a ^32 P-labeled luciferase cDNA probe as described in Example 4. The radioactive signals on the filter were quantitated using a BioRad GS-250 Molecular Imager and mRNA levels were normalized to values obtained for mock treated samples. The results are presented graphically in FIG. 12, Panel A. BA treatment alone increased gamma globin-regulated luciferase mRNA by approximately 6 fold.\nThe results, normalized to mock treated samples, are depicted graphically in FIG. 12, Panel B. In contrast to luciferase mRNA which was induced by BA treatment, the level of GATA-1 RNA decreases about 3 fold in response to BA treatment."}, "[2]": {"test_system": "gamma globin-regulated luciferase mRNA", "assay": "cells", "type": "cell-based, human", "procedure": "Total RNA was prepared by the method of McDonald as described in Sambrook et al., (1989) Molecular Cloning: A Laboratory Manual, 2nd Edition, Cold Spring Harbor Laboratory Press. 10 μg total cellular RNA was electrophoresed through agarose gels containing 3.3% formaldehyde. The electrophoresed RNA was then transferred to nitrocellulose filters by standard methods. Each sample was hybridized to specific probes for gamma globin mRNA, mRNA encoding the erythroid specific transcription factor GATA-1 and 28S ribosomal RNA (which was used for standardization). The gamma globin and GATA-1 probes were cDNA probes, which were labeled with ^32 p by random priming reactions (Promega Biotech Inc.). The 28S ribosomal RNA probe was an oligonucleotide having the sequence 5' […] 3' (SEQ ID NO: 3), which was labeled by 5' end labeling using T4 polynucleotide kinase (New England Biolabs). Nucleotide probes were hybridized to the RNA nitrocellulose filters according to standard techniques. After hybridization, radioactive signals on the nitrocellulose filters were directly quantified using a BioRad GS-250 Molecular Imager. mRNA hybridization intensities were normalized to the amount of 28S ribosomal RNA present for each sample. The results are summarized below in Table 1:\nas §1, with “The results are presented graphically in FIG. 12, Panel A. BA treatment alone increased gamma globin-regulated luciferase mRNA by approximately 6 fold.” left out"}, "[3]": {"test_system": "gamma globin reporter gene activity in gamma3'PE K562 cells (protein kinase C inhibition)", "assay": "effect of the pKC inhibitor hypericin on basal and BA-induced reporter gene activity", "type": "cell-based, human", "conditions": "10 mM hypericin, 1 hour before 5 mM BA for 24 hours", "procedure": "Consistent with the results using the pKC activator (-) indolactam V are the results of experiments utilizing the pKC inhibitor hypericin. In these experiments, cells were incubated in the presence or absence of hypericin (10 mM; LC Laboratories) for one hour prior to treatment with 5 mMBA for 24 hours, followed by harvesting of the cells and assaying of luciferase activity."}, "[4]": {"test_system": "BA uptake by colonocytes", "conditions": "Mascolo et al. 1991; cited from earlier work"}, "[5]": {"test_system": "BA-mediated induction of luciferase activity in gamma3'PE K562 cells", "assay": "effect of transport inhibitors on BA-induced reporter gene activity in gamma3'PE K562 cells", "type": "cell-based, human", "procedure": "To characterize uptake of butyric acid by erythroid cells, K562 cells stably transfected with gamma3'PE were treated with BA in the presence of various transport inhibitors. […] Cells were maintained in the continuous presence of both BA and the inhibitor for 24 hours and then luciferase activity in the cells was measured."}, "[6]": {"test_system": "K562 cells", "assay": "trypan blue exclusion", "type": "cell-based, human"}, "[7]": {"test_system": "14C BA transport into K562 cells", "assay": "14C butyric acid incorporation into gamma3'PE-transfected K562 cells", "type": "cell-based, human", "conditions": "valinomycin 10 μM, 1 hour preincubation; 50 μM 14C BA", "procedure": "To directly examine whether transport of BA into erythroid cells required an intact K+ gradient, the incorporation of ^14 C BA into gamma3'PE-transfected K562 cells was assayed in the presence and absence of 10 μM valinomycin. Cells were incubated with 10 μM valinomycin for 1 hour prior to addition of ^14 C butyric acid (obtained commercially from Dupont/New England Nuclear) to a final concentration of 50 μM. At various times after addition of ^14 C BA, cells were harvested by vacuum filtration through a GF/C filter (Whatman) and washed with a total of 5 ml of RPMI culture media. Radioactivity associated with the cells was quantified directly by liquid scintillation counting of the filter. The results, shown in FIG. 11, indicate that the rate of ^14 C BA incorporation into the cells is inhibited nearly three fold by the addition of valinomycin. Although cells treated with valinomycin did accumulate some ^14 C BA, it is not clear whether this was actually internalized or bound to the surface of the cell. Neutralization of the potassium gradient could be expected to selectively prevent internalization but not binding of radioligand. […] Accordingly, the results described herein are consistent with an erythroid-specific transport mechanism for uptake of BA that is dependent upon an intact K^+ gradient across the cell membrane."}, "[8]": {"test_system": "BA-induced reporter gene expression in gamma3'PE K562 cells", "assay": "effect of extracellular KCl on BA-induced reporter gene activity", "type": "cell-based, human", "procedure": "Valinomycin is a potassium ionophore known to cause depolarization of the K^+ gradient existing across cell membranes. To determine whether the effect of valinomycin indicated a requirement for a K^+ gradient for uptake of BA, gamma3'PE reporter cells were incubated in the presence of culture medium supplemented with increasing concentrations of KCl. Thus, as opposed to valinomycin, this treatment extinguishes the existing K^+ gradient from the external side of the membrane without affecting internal K^+ concentrations. Cells cultured in increasing concentrations on KCl were treated for 5 hours with BA and then harvested and assayed for luciferase activity. The results are shown in FIG. 10, wherein the bars indicate the level of reporter gene activity after induction in the presence of the indicated concentration of KCl and the asterisks indicate basal (uninduced) levels of reporter gene activity in replicate cultures."}}}
{"smiles": "C[C@@H]1C[C@@H]([C@H](O)CC2CC(=O)NC(=O)C2)C(=O)[C@@H](C)C1", "note": "[cycloheximide]", "values": [{"measurement": "effect of cycloheximide alone on GATA-1 mRNA level", "setting": "[1]; 150 μg/ml CHX alone", "value": "insensitive to cycloheximide treatment alone"}, {"measurement": "effect of cycloheximide on BA induced decrease in GATA-1 mRNA level", "setting": "[1]; CHX 150 μg/ml plus BA 5 mM", "value": "sensitive to cycloheximide treatment"}, {"measurement": "effect of cycloheximide alone on luciferase mRNA", "setting": "[2]; 150 μg/ml CHX alone", "value": "significant increase in gamma globin-regulated luciferase mRNA, albeit to a lower level than that observed with BA"}, {"measurement": "effect of cycloheximide on BA-mediated induction of luciferase mRNA", "setting": "[2]; CHX 150 μg/ml 2 hr before BA 5 mM", "value": "failed to block BA-mediated induction of luciferase mRNA"}]}
{"smiles": "Cc1cc(O)c2c(=O)c3c(O)cc(O)c4c5c(O)cc(O)c6c(=O)c7c(O)cc(C)c8c1c2c(c34)c(c78)c65", "note": "[hypericin]", "values": [{"measurement": "effect on basal level and BA induced globin gene expression", "setting": "[3]", "value": "significant reduction in both basal level and BA induced globin gene expression"}]}
{"smiles": "CC(C)[C@@H]1NC(=O)[C@H](C)OC(=O)[C@@H](C(C)C)NC(=O)[C@@H](C(C)C)OC(=O)[C@H](C(C)C)NC(=O)[C@H](C)OC(=O)[C@@H](C(C)C)NC(=O)[C@@H](C(C)C)OC(=O)[C@H](C(C)C)NC(=O)[C@H](C)OC(=O)[C@@H](C(C)C)NC(=O)[C@@H](C(C)C)OC1=O", "note": "[valinomycin]", "values": [{"measurement": "effect on BA uptake by colonocytes", "setting": "[4]", "value": "not inhibited by valinomycin"}, {"measurement": "reduction in BA-mediated globin gene induction", "setting": "[5]; valinomycin 10 μM, 24 hours", "value": 4, "unit": "fold"}, {"measurement": "effect on basal level globin gene expression", "setting": "[5]; valinomycin, no BA", "value": "did not affect basal level globin gene expression"}, {"measurement": "non-specific toxic effect", "setting": "[6]", "value": "did not result from a non-specific toxic effect"}, {"measurement": "inhibition of rate of 14C BA incorporation", "setting": "[7]", "value": "three"}]}
{"smiles": "[Cl-].[K+]", "note": "[KCl]", "values": [{"measurement": "basal level globin expression at higher K+ concentrations", "setting": "[8]; K+ above approximately 200 mM", "value": "a reduction in basal level globin expression was observed at higher K^+ concentrations"}, {"measurement": "external K+ concentration inhibiting BA-induced reporter gene expression", "setting": "[8]; KCl in medium, BA 5 hours", "value": "approximately 200 mM"}, {"measurement": "effect on basal level gene expression", "setting": "[8]; approximately 200 mM KCl", "value": "basal level gene expression was not affected"}]}
